The subject of experiment [1] is PAM4869 producing PDC-1. The experiment can be described thus: MIC, engineered isogenic strain. The experiment is classed as cell-based, P. aeruginosa. Particulars: PDC-1, class C; BLIs at fixed 4 µg/mL.
Experiment [2] relates to PAM4825 producing MIR-1. The experiment can be described thus: MIC, engineered isogenic strain. To be noted: MIR-1, class C; BLIs at fixed 4 µg/mL. The experiment is classed as cell-based, P. aeruginosa.
In experiment [3] the test system is PAM4198 producing IMP-15. Put plainly: MIC, engineered isogenic strain. The experiment is classed as cell-based, P. aeruginosa. To be noted: IMP-15, class B; BLIs at fixed 4 µg/mL.
For experiment [4], the system named is ESBL-producing Enterobacterales. Put plainly: organism not typed. Format: cell-based. To be noted: for MIC50: read-out: MIC50; for MIC90: read-out: MIC90.
For experiment [5], the system named is PAM4840 producing OXY-6–2. Put plainly: MIC, engineered isogenic strain. The experiment is classed as cell-based, P. aeruginosa. Particulars: OXY-6–2, class A; BLIs at fixed 4 µg/mL.
Experiment [6] concerns PAM4875 producing OXA-23. The experiment can be described thus: MIC, engineered isogenic strain. Format: cell-based, P. aeruginosa. Particulars: OXA-23, class D; BLIs at fixed 4 µg/mL.
Experiment [7] concerns PAM4884 producing ADC-181. Put plainly: MIC, engineered isogenic strain. Format: cell-based, P. aeruginosa. Particulars: ADC-181, class C; BLIs at fixed 4 µg/mL.
In experiment [8] the test system is carbapenem-resistant strains of Enterobacterales with cefepime-taniborbactam MIC >8 µg/mL. The experiment can be described thus: MIC testing of CRE with reduced cefepime-taniborbactam susceptibility (Table 6, Fig 1). Format: cell-based. As to the method: Isolates were tested for antimicrobial susceptibility using the broth microdilution methodology per CLSI M07 (2018) guidelines ([40]). JMI Laboratories produced frozen-form 96-well panels with cation-adjusted Mueller-Hinton broth as the testing medium. Current CLSI quality assurance practices were followed when performing the susceptibility tests. MIC values were validated by concurrently testing the following CLSI-recommended ([27]) QC reference strains: E. coli NCTC 13353 (CTX-M-15), Klebsiella pneumoniae ATCC BAA-2814 (KPC-3), Klebsiella pneumoniae ATCC BAA-1705 (KPC-2), and K. pneumoniae ATCC 700603 (SHV-18). The inoculum density during susceptibility testing was monitored by bacterial colony counts. Where applicable, QC ranges for tested reference strains were those approved or published by the CLSI ([27]).

In experiment [9] the test system is PAM4175 (no β-lactamase). The experiment can be described thus: MIC, engineered isogenic strain. Format: cell-based, P. aeruginosa. Particulars: BLIs at fixed 4 µg/mL.
The subject of experiment [10] is PAM4186 producing CMY-2. Put plainly: MIC, engineered isogenic strain. Format: cell-based, P. aeruginosa. Particulars: CMY-2, class C; BLIs at fixed 4 µg/mL.
In experiment [11] the test system is PAM4890 producing IMP-19. Put plainly: MIC, engineered isogenic strain. To be noted: IMP-19, class B; BLIs at fixed 4 µg/mL. The experiment is classed as cell-based, P. aeruginosa.
For experiment [12], the system named is ESBL-producing and carbapenem-resistant Enterobacterales (All, N = 1028). Put plainly: organism not typed. To be noted: for MIC50: read-out: MIC50; for MIC90: read-out: MIC90. Format: cell-based.
The test system of experiment [13] is PAM4887 producing IMP-1. The experiment can be described thus: MIC, engineered isogenic strain. The experiment is classed as cell-based, P. aeruginosa. Particulars: IMP-1, class B; BLIs at fixed 4 µg/mL.
For experiment [14], the target named is VIM-1 (Pseudomonas aeruginosa, UniProt A0A0F7KYQ8). Put plainly: Ki of metallo-β-lactamase inhibition, purified enzyme. Format: biochemical. Particulars: 10-minute preincubation, nitrocefin substrate. Here is the method: (§1) The majority of purified β-lactamase enzymes used in the study were either expressed and purified internally ([35]) or obtained from Emerald Biostructures (Bainbridge Island, WA, USA). L1 enzyme was purified as described in reference ([36]).
(§2) Enzymes were mixed with BLIs at concentrations varying from 160 to 0.0027 µM in 50-mM Na-phosphate pH7.0, 0.1-mg/mL bovide serum albumin (BSA) (buffer A; 20-µM ZnCl2 was also added for all metalloenzymes) and incubated for 10 minutes at 37°C. Nitrocefin (50 µM) (10 µM for SHV-12) or 100 µM of imipenem (prewarmed at 37°C for 10 minutes) was added, and substrate cleavage profiles were recorded at 37°C at 490 nm every 10 seconds for 10 minutes or at 294 nm every 30 seconds for 1 hour for nitrocefin and imipenem, respectively. […] Ki app values (Ki for metalloenzymes) were calculated by the method of Waley ([37]).

The target in experiment [15] is T1, L1 (Stenotrophomonas maltophilia, UniProt P52700).
T1 construct: made in house
Described as above. The experiment is classed as biochemical. To be noted: 10-minute preincubation; nitrocefin substrate. Here is the method: as §1, §2

In experiment [16] the target is OXA-48 (Klebsiella pneumoniae, UniProt Q6XEC0). The experiment can be described thus: Ki app of β-lactamase inhibition, purified enzyme. Format: biochemical, Enterobacterales. Particulars: 10-minute preincubation; nitrocefin substrate. Here is the method:
as §1, §2

Experiment [17] addresses OXA-23 (Acinetobacter baumannii, UniProt Q9L4P2). The experiment can be described thus: Ki app of β-lactamase inhibition, purified enzyme. Particulars: 10-minute preincubation; nitrocefin substrate. Format: biochemical. As to the method:
as §1, §2

Experiment [18] deals with PDC1 (Pseudomonas aeruginosa, UniProt P24735). The experiment can be described thus: Ki app of β-lactamase inhibition, purified enzyme. To be noted: 10-minute preincubation; nitrocefin substrate. Format: biochemical. As to the method:
as §1, §2

The target of experiment [19] is CTX-M-14 (Escherichia coli, UniProt Q9L5C7). Put plainly: Ki app of β-lactamase inhibition, purified enzyme. Format: biochemical. Particulars: 10-minute preincubation; nitrocefin substrate. Here is the method:
as §1, §2

The target in experiment [20] is P99 (Enterobacter cloacae, UniProt P05364). The experiment can be described thus: Ki app of β-lactamase inhibition, purified enzyme. The experiment is classed as biochemical. To be noted: 10-minute preincubation; nitrocefin substrate; read-out: Ki app. As to the method: as §1, §2
In experiment [21] the target is CTX-M-15 (Escherichia coli, UniProt Q9EXV5). The experiment can be described thus: Ki app of β-lactamase inhibition, purified enzyme. Format: biochemical. To be noted: 10-minute preincubation; nitrocefin substrate. Here is the method:
as §1, §2

Experiment [22] addresses T2, VIM-1 (lysate of KP1015) (Pseudomonas aeruginosa, UniProt A0A0F7KYQ8).
T2 construct: endogenous in cells; host or cells: K. pneumoniae KP1015
The experiment can be described thus: IC50 of β-lactamase inhibition (imipenem cleavage) in cell lysates. The experiment is classed as biochemical, K. pneumoniae.

≈ marks a conversion by molar mass, not a printed value. Where “and” joins values, the source holds several entries; their conditions need not be identical. Identical values can stand only once. Like-named read-outs stand apart in the source and are kept apart here.

Sequence of P99 (P05364 21-381): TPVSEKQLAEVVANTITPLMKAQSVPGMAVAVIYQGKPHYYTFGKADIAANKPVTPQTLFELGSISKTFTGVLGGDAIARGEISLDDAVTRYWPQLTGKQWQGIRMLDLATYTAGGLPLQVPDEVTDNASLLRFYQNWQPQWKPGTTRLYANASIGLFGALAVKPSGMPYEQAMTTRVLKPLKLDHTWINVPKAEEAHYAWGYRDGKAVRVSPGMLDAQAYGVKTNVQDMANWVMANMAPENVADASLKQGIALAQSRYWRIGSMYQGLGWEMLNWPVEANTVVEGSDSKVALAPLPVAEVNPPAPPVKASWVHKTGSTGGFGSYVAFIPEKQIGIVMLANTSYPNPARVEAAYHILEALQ
Sequence of CTX-M-15 (Q9EXV5 entry or part of it): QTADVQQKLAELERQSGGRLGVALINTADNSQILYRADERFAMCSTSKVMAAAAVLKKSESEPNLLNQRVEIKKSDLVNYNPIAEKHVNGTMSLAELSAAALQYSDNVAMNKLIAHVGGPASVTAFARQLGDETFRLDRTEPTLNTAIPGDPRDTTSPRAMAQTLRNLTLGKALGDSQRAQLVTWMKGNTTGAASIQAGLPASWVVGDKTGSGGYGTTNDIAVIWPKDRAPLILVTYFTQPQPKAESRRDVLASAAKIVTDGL
Sequence of CTX-M-14 (Q9L5C7 entry or part of it): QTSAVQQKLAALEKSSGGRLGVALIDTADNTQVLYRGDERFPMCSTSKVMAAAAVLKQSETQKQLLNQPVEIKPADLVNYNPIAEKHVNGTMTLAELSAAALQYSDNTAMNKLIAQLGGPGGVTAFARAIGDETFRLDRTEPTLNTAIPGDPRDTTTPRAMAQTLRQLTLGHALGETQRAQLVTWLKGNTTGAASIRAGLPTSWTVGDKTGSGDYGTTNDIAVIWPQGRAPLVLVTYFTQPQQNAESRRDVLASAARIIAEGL
Sequence of PDC1 (P24735 27-397): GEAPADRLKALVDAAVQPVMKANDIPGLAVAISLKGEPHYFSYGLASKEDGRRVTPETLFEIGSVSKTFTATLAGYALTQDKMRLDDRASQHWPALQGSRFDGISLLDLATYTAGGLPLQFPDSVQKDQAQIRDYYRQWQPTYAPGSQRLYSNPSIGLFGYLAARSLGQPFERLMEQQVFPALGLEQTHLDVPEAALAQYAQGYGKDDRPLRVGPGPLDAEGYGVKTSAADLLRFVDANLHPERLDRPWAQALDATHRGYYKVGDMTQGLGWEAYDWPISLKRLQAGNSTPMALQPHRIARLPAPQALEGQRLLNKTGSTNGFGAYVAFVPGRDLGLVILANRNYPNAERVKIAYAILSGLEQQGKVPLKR
Sequence of OXA-23 (Q9L4P2 18-273): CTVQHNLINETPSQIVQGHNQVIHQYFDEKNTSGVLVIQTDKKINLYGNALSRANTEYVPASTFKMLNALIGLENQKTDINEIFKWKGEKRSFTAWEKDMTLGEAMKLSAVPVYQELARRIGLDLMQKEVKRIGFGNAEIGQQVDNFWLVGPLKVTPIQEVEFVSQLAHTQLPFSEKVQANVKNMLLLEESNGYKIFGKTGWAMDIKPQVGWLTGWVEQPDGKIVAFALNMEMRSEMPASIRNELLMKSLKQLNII
T1 sequence (P52700 34-290): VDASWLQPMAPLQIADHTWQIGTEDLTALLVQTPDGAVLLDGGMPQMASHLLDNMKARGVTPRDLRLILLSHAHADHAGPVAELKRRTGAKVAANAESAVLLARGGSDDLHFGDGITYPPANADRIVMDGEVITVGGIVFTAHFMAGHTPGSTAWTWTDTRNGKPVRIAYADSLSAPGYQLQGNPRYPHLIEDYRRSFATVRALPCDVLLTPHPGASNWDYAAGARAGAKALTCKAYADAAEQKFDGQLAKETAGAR
Sequence of OXA-48 (Q6XEC0 23-265 limits assumed): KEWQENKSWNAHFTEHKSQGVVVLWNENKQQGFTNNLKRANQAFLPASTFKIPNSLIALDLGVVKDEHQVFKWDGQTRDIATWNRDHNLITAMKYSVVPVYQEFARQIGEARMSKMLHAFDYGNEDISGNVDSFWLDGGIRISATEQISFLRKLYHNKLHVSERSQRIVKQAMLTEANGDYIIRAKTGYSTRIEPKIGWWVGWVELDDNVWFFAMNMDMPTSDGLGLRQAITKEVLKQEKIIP

Broadly, the MIC is the lowest concentration found to suppress growth. A low value points to greater potency. For orientation: MIC50 means the lowest concentration that inhibits either 50% of growth or 50% of the strains tested, depending on the study. Broadly, the MIC90 is an inhibitory concentration at the 90% level, which refers to growth in some studies and to a panel of isolates in others. Take `CO/N=C(\C(=O)N[C@@H]1C(=O)N2C(C(=O)[O-])=C(C[N+]3(C)CCCC3)CS[C@H]12)c1csc(N)n1` [FEP, cefepime]: the MIC in [1] turned out to be 4 µg/mL (≈ 8.32 µM); in experiment [2], 2 µg/mL (≈ 4.16 µM); in experiment [3], 16 µg/mL (≈ 33.3 µM); in experiment [5] it was 8 µg/mL (≈ 16.6 µM); in experiment [6], 2 µg/mL (≈ 4.16 µM); in experiment [7], 0.5 µg/mL (≈ 1.04 µM). Moreover, the MIC in [9] stood at 0.25 µg/mL (≈ 0.52 µM); in [10], 1 µg/mL (≈ 2.08 µM); in experiment [11], 64 µg/mL (≈ 133 µM); in experiment [13] it was 64 µg/mL (≈ 133 µM). In addition, the MIC50 in experiment [4] turned out to be 16 µg/mL (≈ 33.3 µM); in [8], 64 µg/mL; in experiment [8] (All MBL (N = 129)), 64 µg/mL; in experiment [8] (IMP (N = 20)) it was 32 µg/mL; in experiment [8] (KPC and OXA-48 (N = 12)) it was 64 µg/mL; in experiment [8] (MBL negative (N = 34)) it was 64 µg/mL. Also, the MIC50 in [8] (NDN (N = 101)) was 64 µg/mL; in experiment [8] (Non-CP CRE (N = 22)), 64 µg/mL; in experiment [8] (VIM (N = 8)), above 64 µg/mL; in [12], 64 µg/mL (≈ 133 µM). The MIC90 in experiment [4] is above 64 µg/mL; in experiment [8] it was above 64 µg/mL; in [8] (All MBL (N = 129)), above 64 µg/mL; in experiment [8] (IMP (N = 20)), above 64 µg/mL; in experiment [8] (KPC and OXA-48 (N = 12)), above 64 µg/mL; in experiment [8] (MBL negative (N = 34)), above 64 µg/mL. Further, the MIC90 in [8] (NDN (N = 101)), in experiment [8] (Non-CP CRE (N = 22)) and in experiment [12] was above 64 µg/mL in each case.

As to `C[C@@H](O)[C@H]1C(=O)N2C(C(=O)O)=C(S[C@@H]3CN[C@H](C(=O)N(C)C)C3)[C@H](C)[C@H]12` [MEM, meropenem], the MIC in experiment [1] was determined as 0.5 µg/mL (≈ 1.3 µM); in experiment [2] it was 0.5 µg/mL (≈ 1.3 µM); in experiment [3] it was 1 µg/mL (≈ 2.61 µM); in experiment [5], 0.25 µg/mL (≈ 0.652 µM); in experiment [6] it was 2 µg/mL (≈ 5.22 µM); in experiment [7], 0.125 µg/mL (≈ 0.326 µM). Besides, the minimum inhibitory concentration (MIC) was 0.125 ^ a in [9], 0.25 µg/mL (≈ 0.652 µM) in experiment [10], 1 µg/mL (≈ 2.61 µM) in experiment [11] and 4 µg/mL (≈ 10.4 µM) in experiment [13]. The MIC50 in [4] was at most 0.03 µg/mL; in experiment [8], above 64 µg/mL; in [8] (All MBL (N = 129)), above 64 µg/mL; in experiment [8] (IMP (N = 20)) it was 16 µg/mL; in experiment [8] (KPC and OXA-48 (N = 12)) it was 32 µg/mL; in experiment [8] (MBL negative (N = 34)), 16 µg/mL. The MIC50 in experiment [8] (NDN (N = 101)) was above 64 µg/mL; in experiment [8] (Non-CP CRE (N = 22)), 16 µg/mL; in [8] (VIM (N = 8)) it was above 64 µg/mL; in experiment [12], 0.5 µg/mL (≈ 1.3 µM). The MIC90 in [4] was 0.06 µg/mL (≈ 0.156 µM); in experiment [8], above 64 µg/mL; in [8] (All MBL (N = 129)), above 64 µg/mL; in experiment [8] (IMP (N = 20)), 64 µg/mL; in [8] (KPC and OXA-48 (N = 12)), above 64 µg/mL; in experiment [8] (MBL negative (N = 34)), above 64 µg/mL. Further, the MIC90 in experiment [8] (NDN (N = 101)) was above 64 µg/mL; in experiment [8] (Non-CP CRE (N = 22)), 32 µg/mL; in [12], above 64 µg/mL.

In general, IC50 refers to the concentration that gives 50% inhibition. Regarding `NCCN[C@H]1CC[C@H](CC(=O)N[C@H]2Cc3cccc(C(=O)O)c3OB2O)CC1` [Taniborbactam, taniborbactam], the Ki in [14] is 31 ± 3 nM; in experiment [14] (listed as taniborbactam) it was around 30 nM; in experiment [15], 17000 nM; in experiment [16], 6.1 ± 0.7 nM; in experiment [17] it was above 20000 nM; in experiment [18] it was 22 nM. For the same compound, the Ki in experiment [19] was found to be 1.2 ± 0.5 nM; in experiment [20], 2.4 ± 0.5 nM; in experiment [21], 2.6 ± 0.1 nM. The IC50 in experiment [22] (KP1015, VIM-1, imipenem cleavage, read-out: IC50 of β-lactamase inhibition in cell lysates) came out at 190 ± 10 nM.

For `O=C(O)c1c(F)ccc2c1OB(O)[C@@H]1C[C@H]21` [Xeruborbactam, xeruborbactam], the Ki was determined as 32 ± 14 nM in experiment [14]; 1400 nM in [15]; 0.22 ± 0.08 nM in experiment [16]; 0.74 ± 0.28 nM in [17]; 14 nM in experiment [18]; 0.29 ± 0.06 nM in [19]. For the same compound, the Ki is 8 nM and 8.5 nM in experiment [20]; 0.37 ± 0.01 nM in [21]. Besides, the concentration for half-maximal inhibition (IC50) in [22] is 250 ± 20 nM.

Source of the values: publication PMC10648875 (Antimicrobial Agents and Chemotherapy, 2023).
